The results in this text go back to patent US8420657B2 (Novartis AG, priority 2008, dated 2013).

Molecules are shown by their SMILES.

The target of one experiment is T1, GST-JAK2(808-1132) (Homo sapiens, UniProt O60674).
T1 construct: GST-JAK2(808-1132); purchased Invitrogen (Carlsbad, USA) #4288
Briefly: JAK2 kinase assay (Caliper mobility shift, LabChip 3000). It is filed as biochemical. The procedure, abridged:
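Recombinant GST-JAK2(808-1132) kinase domain with FITC-labelled JAK3tide peptide substrate and ATP; 60 min at 30 °C, EDTA stop. Substrate/product ratio read by microfluidic mobility shift; compounds at 8 final concentrations, 10 to 0.003 μM.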

The test system of experiment [1] is JAK1/JAK2-dependent nuclear translocation of STAT1-GFP in HT1080 fibrosarcoma cells. The experiment is described as follows: STAT1 nuclear translocation assay (Cellomics), IFN-γ stimulated HT1080 STAT1-GFP cells. In kind it is cell-based. The following applies: Homo sapiens, HT-1080, STAT1 translocation pathway. The procedure, abridged: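 HT1080 cells stably expressing STAT1-GFP, pre-treated 30 min with compound (10 μM–0.003 μM, 0.1% DMSO), then stimulated 2 h with 100 ng/ml IFN-γ, fixed and Hoechst-stained. Nuclear-cytoplasmic GFP differential imaged over ≥1000 cells/well, normalised to unstimulated and DMSO-stimulated wells for IC50.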

T1 sequence (O60674 808-1132): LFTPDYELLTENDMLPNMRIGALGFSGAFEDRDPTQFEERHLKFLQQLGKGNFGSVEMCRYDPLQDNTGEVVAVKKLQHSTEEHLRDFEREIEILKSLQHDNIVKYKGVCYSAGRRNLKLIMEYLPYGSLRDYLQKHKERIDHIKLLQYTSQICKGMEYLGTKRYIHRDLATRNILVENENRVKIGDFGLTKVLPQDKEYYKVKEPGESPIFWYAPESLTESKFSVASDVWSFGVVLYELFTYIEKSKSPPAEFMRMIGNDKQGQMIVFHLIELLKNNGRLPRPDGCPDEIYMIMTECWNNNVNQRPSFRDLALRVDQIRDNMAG

Turning to `Cn1cc(Nc2ncc3ccn(-c4cc(F)c(CN5CCOCC5)c(F)c4)c3n2)cn1` [Example 247, [7-(3,5-Difluoro-4-morpholin-4-ylmethyl-phenyl)-7H-pyrrolo[2,3-d]pyrimidin-2-yl]-(1-methyl-1H-pyrazol-4-yl)-amine], the results for the half-maximal inhibitory concentration (IC50) (at GST-JAK2(808-1132); in experiment [1]) were 3.7 nM and 255 nM, respectively.
In the same order, the values of `O=C(c1cncc(Nc2ncc3ccn(-c4cc(F)c(CN5CCOCC5)c(F)c4)c3n2)c1)N1CCOCC1` [Example 248, {5-[7-(3,5-Difluoro-4-morpholin-4-ylmethyl-phenyl)-7H-pyrrolo[2,3-d]pyrimidin-2-ylamino]-pyridin-3-yl}-morpholin-4-yl-methanone] are 24 nM and 4270 nM.
In the same order, the values of `Cc1ccc(Nc2ncc3ccn(-c4ccc(C(=O)N5CCS(=O)(=O)CC5)cc4)c3n2)cn1` [Example 249, (1,1-Dioxido-thiomorpholin-4-yl)-{4-[2-(6-methyl-pyridin-3-ylamino)-pyrrolo[2,3-d]pyrimidin-7-yl]-phenyl}-methanone] are 4.3 nM and 815 nM.
In the same order, the values of `COc1ccc(Nc2ncc3ccn(-c4ccc(C(=O)N5CCS(=O)(=O)CC5)cc4)c3n2)cn1` [Example 250, (1,1-Dioxido-thiomorpholin-4-yl)-{4-[2-(6-methoxy-pyridin-3-ylamino)-pyrrolo[2,3-d]pyrimidin-7-yl]-phenyl}-methanone] are 9.1 nM and 940 nM.
As for `COCCn1cc(Nc2ncc3ccn(-c4cc(F)c(C(=O)N5CCOCC5)c(F)c4)c3n2)cn1` [Example 251, (2,6-Difluoro-4-{2-[1-(2-methoxy-ethyl)-1H-pyrazol-4-ylamino]-pyrrolo[2,3-d]pyrimidin-7-yl}-phenyl)-morpholin-4-yl-methanone], the IC50 – broadly, the midpoint of a concentration-inhibition curve – at GST-JAK2(808-1132) was 6.1 nM; in experiment [1], 450 nM.
For `COCCn1cc(Nc2ncc3ccn(-c4cc(F)c(CN5CCOCC5)c(F)c4)c3n2)cn1` [Example 252, [7-(3,5-Difluoro-4-morpholin-4-ylmethyl-phenyl)-7H-pyrrolo[2,3-d]pyrimidin-2-yl]-[1-(2-methoxy-ethyl)-1H-pyrazol-4-yl]-amine] the same measures were 3.3 nM and 340 nM.
For the compound `Cn1cc(Nc2ncc3ccn(-c4ccc(C(=O)N5CCOCC5)cc4)c3n2)cn1` [Example 253, {4-[2-(1-Methyl-1H-pyrazol-4-ylamino)-pyrrolo[2,3-d]pyrimidin-7-yl]-phenyl}-morpholin-4-yl-methanone], the IC50 turned out to be 7.1 nM on GST-JAK2(808-1132) and 130 nM in experiment [1].
In the same order, the values of `C[C@@H]1CN(Cc2ccc(Nc3ncc4ccn(-c5cc(F)c(C(=O)N6CCOCC6)c(F)c5)c4n3)cc2)C[C@H](C)N1` [Example 255, (4-{2-[4-(cis-3,5-Dimethyl-piperazin-1-ylmethyl)-phenylamino]-pyrrolo[2,3-d]pyrimidin-7-yl}-2,6-difluoro-phenyl)-morpholin-4-yl-methanone] are 6.9 nM and 115 nM.
On to `Fc1cc(-n2ccc3cnc(Nc4ccc(CN5CCNC6(CC6)C5)cc4)nc32)cc(F)c1CN1CCOCC1` [Example 256], for which the values for the IC50 (at GST-JAK2(808-1132); in experiment [1]) were less than 3 nM and 115 nM, respectively.
For `O=C(c1c(F)cc(-n2ccc3cnc(Nc4ccc(CN5CCNC6(CC6)C5)cc4)nc32)cc1F)N1CCOCC1` [Example 257] the same measures were 10 nM and 150 nM.
For `O=C1CN(Cc2ccc(Nc3ncc4ccn(-c5cc(F)c(CN6CCOCC6)c(F)c5)c4n3)cc2)CCN1` [Example 258, 4-{4-[7-(3,5-Difluoro-4-morpholin-4-ylmethyl-phenyl)-7H-pyrrolo[2,3-d]pyrimidin-2-ylamino]-benzyl}-piperazin-2-one] the same measures were less than 3 nM and 80 nM.
For `O=C1CN(Cc2ccc(Nc3ncc4ccn(-c5cc(F)c(C(=O)N6CCOCC6)c(F)c5)c4n3)cc2)CCN1` [Example 259, 4-(4-{7-[3,5-Difluoro-4-(morpholine-4-carbonyl)-phenyl]-7H-pyrrolo[2,3-d]pyrimidin-2-ylamino}-benzyl)-piperazin-2-one] the same measures were less than 3 nM and 80 nM.
For `O=C(c1c(F)cc(-n2ccc3cnc(Nc4ccc(N5CCNCC5)nc4)nc32)cc1F)N1CCOCC1` [Example 262, {2,6-Difluoro-4-[2-(6-piperazin-1-yl-pyridin-3-ylamino)-pyrrolo[2,3-d]pyrimidin-7-yl]-phenyl}-morpholin-4-yl-methanone], the IC50 on GST-JAK2(808-1132) amounted to 4.2 nM; in experiment [1] it was 285 nM.
For `Fc1cc(-n2ccc3cnc(Nc4ccc(N5CCNCC5)nc4)nc32)cc(F)c1CN1CCOCC1` [Example 263, [7-(3,5-Difluoro-4-morpholin-4-ylmethyl-phenyl)-7H-pyrrolo[2,3-d]pyrimidin-2-yl]-(6-piperazin-1-yl-pyridin-3-yl)-amine] the same measures were less than 3 nM and 55 nM.
For `O=C(c1c(F)cc(-n2ccc3cnc(Nc4ccc(N5CCN(CCO)CC5)nc4)nc32)cc1F)N1CCOCC1` [Example 264, [2,6-Difluoro-4-(2-{6-[4-(2-hydroxy-ethyl)-piperazin-1-yl]-pyridin-3-ylamino}-pyrrolo[2,3-d]pyrimidin-7-yl)-phenyl]-morpholin-4-yl-methanone] the same measures were less than 3 nM and 165 nM.
In the same order, the values of `OCCN1CCN(c2ccc(Nc3ncc4ccn(-c5cc(F)c(CN6CCOCC6)c(F)c5)c4n3)cn2)CC1` [Example 265, 2-(4-{5-[7-(3,5-Difluoro-4-morpholin-4-ylmethyl-phenyl)-7H-pyrrolo[2,3-d]pyrimidin-2-ylamino]-pyridin-2-yl}-piperazin-1-yl)-ethanol] are less than 3 nM and 40 nM.
Take `C[C@@H]1CN(c2ccc(Nc3ncc4ccn(-c5cc(F)c(C(=O)N6CCOCC6)c(F)c5)c4n3)cn2)C[C@H](C)N1` [Example 266, (4-{2-[6-(cis-3,5-Dimethyl-piperazin-1-yl)-pyridin-3-ylamino]-pyrrolo[2,3-d]pyrimidin-7-yl}-2,6-difluoro-phenyl)-morpholin-4-yl-methanone]: the IC50 at GST-JAK2(808-1132) was 8.4 nM; in experiment [1], 150 nM.
In the case of `C[C@@H]1CN(c2ccc(Nc3ncc4ccn(-c5cc(F)c(CN6CCOCC6)c(F)c5)c4n3)cn2)C[C@H](C)N1` [Example 267, [7-(3,5-Difluoro-4-morpholin-4-ylmethyl-phenyl)-7H-pyrrolo[2,3-d]pyrimidin-2-yl]-[6-(cis-3,5-dimethyl-piperazin-1-yl)-pyridin-3-yl]-amine], the results for the half-maximal inhibitory concentration (IC50) (at GST-JAK2(808-1132); in experiment [1]) were less than 3 nM and 50 nM, respectively.
In the same order, the values of `O=C(c1c(F)cc(-n2ccc3cnc(Nc4ccc(N5CCNC6(CC6)C5)nc4)nc32)cc1F)N1CCOCC1` [Example 268, (4-{2-[6-(4,7-Diaza-spiro[2.5]oct-7-yl)-pyridin-3-ylamino]-pyrrolo[2,3-d]pyrimidin-7-yl}-2,6-difluoro-phenyl)-morpholin-4-yl-methanone] are 7.8 nM and 210 nM.
In the same order, the values of `Fc1cc(-n2ccc3cnc(Nc4ccc(N5CCNC6(CC6)C5)nc4)nc32)cc(F)c1CN1CCOCC1` [Example 270, [6-(4,7-Diaza-spiro[2.5]oct-7-yl)-pyridin-3-yl]-[7-(3,5-difluoro-4-morpholin-4-ylmethyl-phenyl)-7H-pyrrolo[2,3-d]pyrimidin-2-yl]-amine] are 4.3 nM and 35 nM.
For `CS(=O)(=O)c1ccc(-n2ccc3cnc(Nc4ccc(N5CCNC6(CC6)C5)nc4)nc32)cc1` [Example 272, [6-(4,7-Diaza-spiro[2.5]oct-7-yl)-pyridin-3-yl]-[7-(4-methanesulfonyl-phenyl)-7H-pyrrolo[2,3-d]pyrimidin-2-yl]-amine] the same measures were 11 nM and 175 nM.
With `C[C@@H]1CN(c2ccc(Nc3ncc4ccn(-c5ccc(S(C)(=O)=O)cc5)c4n3)cn2)C[C@H](C)N1` [Example 273, [6-(cis-3,5-Dimethyl-piperazin-1-yl)-pyridin-3-yl]-[7-(4-methanesulfonyl-phenyl)-7H-pyrrolo[2,3-d]pyrimidin-2-yl]-amine], the IC50 was 6 nM at GST-JAK2(808-1132) and 190 nM in experiment [1].
On to `CCOc1ccc(Nc2ncc3cc(C)n(-c4ccc(CC(=O)N5CCS(=O)(=O)CC5)c(F)c4)c3n2)cc1OCC` [Example 286, 2-{4-[2-(3,4-Diethoxy-phenylamino)-6-methyl-pyrrolo[2,3-d]pyrimidin-7-yl]-2-fluoro-phenyl}-1-(1,1-dioxido-thiomorpholin-4-yl)-ethanone], for which the values for the IC50 (on GST-JAK2(808-1132); in experiment [1]) were 10.6 nM and 285 nM, respectively.
In the case of `CCOc1ccc(Nc2ncc3cc(C)n(-c4ccc(C(=O)N5CCOCC5)c(F)c4)c3n2)cc1OCC` [Example 287, {4-[2-(3,4-Diethoxy-phenylamino)-6-methyl-pyrrolo[2,3-d]pyrimidin-7-yl]-2-fluoro-phenyl}-morpholin-4-yl-methanone], the IC50 on GST-JAK2(808-1132) is 46.5 nM; in experiment [1], 441 nM.
For `O=C(c1ccc(-n2ccc3cnc(Nc4ccc(CN5CCOCC5)cc4)nc32)cc1F)N1CCOCC1` [Example 288, {2-Fluoro-4-[2-(4-morpholin-4-ylmethyl-phenylamino)-pyrrolo[2,3-d]pyrimidin-7-yl]-phenyl}-morpholin-4-yl-methanone] the same measures were less than 3 nM and 67.5 nM.
As to `Cc1ccc(Nc2ncc3ccn(-c4cc(F)c(CN5CCOCC5)c(F)c4)c3n2)cc1C` [Example 289, [7-(3,5-Difluoro-4-morpholin-4-ylmethyl-phenyl)-7H-pyrrolo[2,3-d]pyrimidin-2-yl]-(3,4-dimethyl-phenyl)-amine], the figures for the IC50 (on GST-JAK2(808-1132); in experiment [1]) were less than 17 nM and 232 nM, respectively.
